Legend:
[1] = tested on: pancreatic cancer MiaPaca cells; experiment: ER stress in pancreatic cancer cells by electron microscopy; assay type: cell-based
Excerpt: The basal level of expression of endoplasmic reticulum stress and unfolded protein response correlates with TK41 activity (FIG. 28). Modulation of the level of these stress proteins affects the activity of TK41. Thus, the basal level of expression of endoplasmic reticulum stress and unfolded protein response proteins may serve as a biomarker to predict response to TK41. […] Without wishing to be bound by any particular theory, the mechanism of action of TK41 may operate comprise targeting either ER or TLX and inducing endoplasmic reticulum stress, subsequent apoptosis, and blocking autophagic fusion (FIG. 30).

[2] = tested on: 22 human preclinical TNBC cell line models; experiment: CellTiter-Glo cell viability assay in TNBC cell lines; assay type: cell-based; conditions: 22 TNBC cell lines, read-out: IC50, CellTiter-Glo cell viability assays
Excerpt: FIGS. 34A-C: Dose response curve of ERX-41 in multiple TNBC. cell lines using WST-1 assays (FIG. 34A) and CellTiter-Glo assays (FIG. 34B). […] Quantification of the number of dead cells over time seen with live cell imaging in MDAMB-231 and HMEC cells is shown.
To evaluate the generalizability of the inventors' findings, they evaluated ERX-41 in a large number of TNBC and ERa-positive cell lines.

primary TNBC tumors = experiment: Ex vivo patient derived explant (PDE) cultures of TNBC; assay type: cell-based, human
Description: FIGS. 38A-E: LIPA is a viable molecular target in TNBC. (FIG. 38A) Kaplan-Meier curves show the correlation between expression levels of LAL with survival outcomes using a TCGA dataset with numerical tabulation below. (FIGS. 38B-D) Following surgical extirpation, primary TNBC tumors were cultured ex vivo either with vehicle or 1 μM ERX-41, as shown by the schematic (FIG. 38B). The effect on proliferation index (ki67) (FIG. 38C) and apoptosis markers (cleaved caspase 3) (FIG. 38D) is graphed. Representative immunohistochemical images of the effect of ERX-41 on ki67, cleaved caspase 3 and UPR genes shown (FIG. 38E).
ERX-41 has activity on human TNBC tumors. To ascertain that ERX-41 would have activity against primary TNBC tumors, the inventors leveraged their prior significant experience with the ex vivo patient derived explant (PDE) cultures […]. The PDE cultures, maintains the native tissue architecture and better recapitulates the heterogeneity of human TNBC in a laboratory setting.

LIPA = target: T1, LIPA (Homo sapiens, UniProt P38571); experiment: Biotinylated ERX-41 pulldown; assay type: binding; conditions: WT-LIPA and H274Y MT-LIPA, not DLXXLL or L242P MT-LIPA
T1 construct: expressed in transfected cells; host or cells: SUM-159 cells with LIPA KO, reconstituted with LIPA plasmid constructs
Excerpt: FIGS. 39A-N: (FIGS. 39A-E) Predicted binding mode of ERX-41 (colored in green) on the human lysosomal acid lipase (LAL, PDB code: 6V7N, LXXLL (SEQ ID NO: 1) domain colored in orange). (FIG. 39F) PDB structure of LAL protein showing relative positions of the catalytic domain (with H274Y MT) and the LXXLL (SEQ ID NO: 1) domain (L242P MT). (FIG. 39G) Evaluation of the effect of ERX-41 and lalistat (known lipase inhibitor) on lipase activity of parental SUM-159 (WT) and SUM-159 cells with LIPA KO. (FIG. 39H) Evaluation of basal lipase activity in parental SUM-159 (WT), SUM-159 cells with LIPA KO (KO), SUM-159 cells with LIPA KO and with reconstitution of either WT LIPA (KO+WT), H274Y MT-LIPA (KO+H274Y), DLXXLL (SEQ ID NO: 2) MT-LIPA (KO+DLXXLL (SEQ ID NO: 2)) or L242P MT-LIPA (KO+L242P). Protein expression of LAL and control vinculin in these cells are shown below (FIG. 391) Cellular lysates from described SUM-159 cells were incubated with biotinylated ERX-11 or biotinylated ERX-41 and then subject to a streptavidin column. Elutants were then evaluated for LIPA pulldown by western blotting. (FIG. 39J) Dose response curve to increasing concentrations of ERX-41 in described SUM-159 cells. (FIGS. 39K-M) Effect of vehicle or 1 μM ERX-41 on induction of UPR genes at the protein level (FIG. 39K) or RNA level (FIGS. 39L-M). […]

T1 sequence (P38571 22-399): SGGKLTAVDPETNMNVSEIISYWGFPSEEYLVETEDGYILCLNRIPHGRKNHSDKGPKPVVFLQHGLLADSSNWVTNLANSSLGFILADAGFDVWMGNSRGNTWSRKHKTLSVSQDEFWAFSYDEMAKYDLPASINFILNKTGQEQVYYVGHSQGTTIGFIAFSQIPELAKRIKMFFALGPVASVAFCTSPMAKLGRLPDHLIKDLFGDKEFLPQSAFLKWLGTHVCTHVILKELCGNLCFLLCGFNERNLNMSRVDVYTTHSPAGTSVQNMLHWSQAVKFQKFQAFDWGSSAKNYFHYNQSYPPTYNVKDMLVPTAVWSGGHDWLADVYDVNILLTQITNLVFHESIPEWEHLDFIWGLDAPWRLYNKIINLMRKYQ

Q: For `CC(C)COc1cc(C(=O)Nc2ccc(C(=O)N[C@H]3CC[C@H](C)CC3)cc2OCC(C)C)ccc1NC(=O)c1ccc([N+](=O)[O-])c(OCCO)c1` [TK41], which “induction of endoplasmic reticulum stress in MiaPaca” value [1] is on record?
A: Its value is “Endoplasmic reticulum stress was also induced”.

Q: And the IC50 [2]?
A: Its IC50 is under 250 nM.

Q: What about the “apoptosis (cleaved caspase 3 staining)” value (primary TNBC tumors; 1 μM ex vivo) of the same compound?
A: The value was “increased apoptosis”.

Q: What about the “proliferation (ki67 staining)” value (primary TNBC tumors; 1 μM ex vivo) of the same compound?
A: The value was “decreased proliferation”.

Q: And the “UPR pathway markers by immunohistochemistry” value (primary TNBC tumors; within 24 h after treatment)?
A: Its value is “enhanced pPERK, CHOP (protein product of DDIT3 gene) and peiF2a staining”.

Q: And the “interaction with LIPA” value (LIPA)?
A: The value was “direct interaction”.

From US12275685B2, “Oligo-benzamide analogs and their use in cancer treatment” (Board of Regents, The University of Texas System, priority 2018, dated 2025)
